From PubChem BioAssay (NCI)
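Assay format: 96-well plates, 48-hour exposure. GI50 = concentration required for 50% inhibition of growth. TGI denotes the concentration required for complete inhibition of growth.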

What was measured:
Test in all cases: growth of human tumour cells (NCI), 48 h
[1] = tested on: OVCAR-5 ovarian
[2] = tested on: M14 melanoma
[3] = tested on: SN12C renal
[4] = tested on: RXF 393 renal
[5] = tested on: OVCAR-8 ovarian
[6] = tested on: IGROV1 ovarian
[7] = tested on: HOP-92 NSCLC
[8] = tested on: U251 CNS
[9] = tested on: MOLT-4 leukemia
[10] = tested on: SK-MEL-28 melanoma

SMILES	GI50 [1] [nM]	TGI [1] [µM]	GI50 [2] [nM]	TGI [2] [µM]	GI50 [3] [nM]	TGI [3] [µM]	GI50 [4] [nM]	TGI [4] [µM]	GI50 [5] [nM]	TGI [5] [µM]	GI50 [6] [nM]	TGI [6] [µM]	GI50 [7] [nM]	TGI [7] [µM]	GI50 [8] [nM]	TGI [8] [µM]	GI50 [9] [nM]	TGI [9] [µM]	TGI [10] [µM]	GI50 [10] [nM]
COc1cccc(/C=C/C(=O)c2cc3c(N)c(C(=O)Nc4cccc5ccccc45)sc3nc2C)c1	1420	4.6	1310	4.69	1140	2.98	803	1.9	1230	4.08	1050	2.78	953	4.9	970	2.06	1460	> 50	–	–
COc1ccc(CCc2cc(OC)c(OC)c(OC)c2)cc1	–	> 100	–	16	–	> 91.2	–	0.057	–	32.2	–	> 100	–	62.7	–	2.73	–	6.26	> 61.3	–
O=S(=O)(c1ccc(O)c(C=Nc2ccc(Cl)cc2)c1)c1ccc(O)c(C=Nc2ccc(Cl)cc2)c1	–	> 100	–	> 100	–	> 100	–	> 100	–	> 100	–	> 100	–	> 100	–	> 100	–	> 100	> 100	–
Cc1cc(Cl)cc2c1NC(=O)C2=O (tested in a mixture with another compound)	–	> 100	–	> 100	–	> 100	–	> 100	–	> 100	–	> 100	–	> 100	–	> 100	–	54.7	> 100	–
FC1OC2OC1C(OCc1ccccc1)C(OCc1ccccc1)C2OCc1ccccc1 (configuration not stated)	–	> 100	–	> 100	–	> 100	–	> 100	–	> 100	–	> 100	–	64	–	> 100	–	67.4	> 100	–
CCN(CC)CCN(C(=O)C(C)(C)C)c1ccccc1N	–	> 100	–	> 100	–	> 100	–	> 100	–	> 100	–	> 100	–	> 100	–	> 100	–	> 100	> 100	–
CN1CCc2c1nc(-c1ccc([N+](=O)[O-])cc1)c1c2N(C)CC1	–	> 100	–	> 100	–	> 100	–	> 100	–	> 100	–	> 100	–	> 100	–	> 100	–	> 100	–	–
CNC(=O)CN(CC(N)=O)C(N)=O	–	> 100	–	> 100	–	–	–	> 100	–	> 100	–	> 100	–	> 100	–	> 100	–	> 100	> 100	–
O=C(Nc1ccccc1C(=O)N/N=C(\c1ccccc1)c1ccccn1)c1ccc(F)cc1	671	> 100	276	3.89	584	> 100	576	9.17	310	> 100	198	> 100	1420	> 100	297	> 100	284	> 100	> 100	536
O=C1CN(/N=C/c2ccc(-c3ccc(F)cc3)o2)C(=O)N1	–	> 100	–	> 100	–	> 100	–	> 100	–	> 100	–	> 100	–	57.8	–	> 100	–	> 100	83.6	–
CC1(C)CC[C@]2(C(N)=O)CC[C@]3(C)C(=CC[C@@H]4[C@@]5(C)C/C(=C/c6ccncc6)C(=O)C(C)(C)[C@@H]5CC[C@]43C)[C@@H]2C1	1610	3.16	2050	4.62	1820	3.67	1590	3.05	3200	> 100	2290	6.6	1760	4.77	1690	3.27	2000	6.02	3.39	1810
COc1ccc(C(O)CC(O)(C(F)(F)F)C(F)(F)F)cc1 (configuration not stated)	–	83.9	–	> 100	–	60.8	–	62	–	> 100	–	84.4	–	44.4	–	> 100	–	> 100	> 100	–
CCOP(=O)(Nc1ccc2oc(=O)c3ccccc3c2c1)OCC	–	> 100	–	> 100	–	> 100	–	> 100	–	> 100	–	> 100	–	> 100	–	> 100	–	> 100	> 100	–
CSc1ccc(C(=O)C(=O)c2ccc(SC)s2)s1	–	> 10	–	> 10	–	> 10	–	> 10	–	> 10	–	> 10	–	> 10	–	> 10	–	7.78	> 10	–
C[C@]12CC[C@H](OC3CCCCO3)CC1=CC[C@@H]1C2CC[C@]2(C)/C(=N/O)CCC12 (some centres not stated)	–	75.6	–	63.9	–	31.5	–	44.8	–	40.5	–	> 100	–	46	–	40.4	–	48.9	54.3	–
CCOC(=O)C1COc2cc(-c3cc(=O)c4ccccc4o3)ccc2O1 (configuration not stated)	–	> 100	–	> 100	–	> 100	–	> 100	–	93.6	–	> 100	–	39.3	–	> 100	–	> 100	> 100	–
COC(OC)c1cc2c(cc1C(=O)[C@@]13CCC[C@@H]1NC(=O)O3)OCO2	–	> 100	–	> 100	–	> 100	–	> 100	–	> 100	–	> 100	–	> 100	–	> 100	–	> 100	> 100	–
CC1COCC(C)N1C1=C(Cl)C(=O)c2ccccc2C1=O (configuration not stated)	17000	32	6530	19.5	11300	23.5	1900	4.22	3730	13.6	–	–	554	2.06	11600	25.7	2770	7.5	27.9	14200
O=C(Nc1cccc(NC(=O)c2cc(=O)c3ccccc3o2)n1)c1cc(=O)c2ccccc2o1	–	> 100	–	> 100	–	–	–	> 100	–	> 100	–	> 100	–	52.7	–	> 100	–	> 100	> 100	–
CC(=O)C1C(=O)N(C(C)C)C[C@@H]2CCC(=O)C[C@H]12 (some centres not stated)	–	–	–	> 100	–	> 100	–	> 100	–	> 100	–	> 100	–	> 100	–	> 100	–	> 100	> 100	–
